Experimental data from article PMC4076210, “Discovery of Novel AKT Inhibitors with Enhanced Anti-Tumor Effects in Combination with the MEK Inhibitor” (PLoS ONE, 2014).
Read-outs that look alike come from different tables or passages of the source.

Tests used:
Type in all cases: biochemical
Abl (M351T)(h) = biological target: T1, Abl (M351T)(h) (Homo sapiens, UniProt P00519, M351T); experiment: Kinase panel
T1 construct: purchased Millipore KinaseProfiler

Arg(m) = biological target: T2, Arg(m) (Mus musculus, UniProt Q4JIM5); experiment: Kinase panel
T2 construct: purchased Millipore KinaseProfiler

ASK1(h) = biological target: T3, ASK1(h) (Homo sapiens, UniProt Q99683); experiment: Kinase panel
T3 construct: purchased Millipore KinaseProfiler
T3 sequence (Q99683 1-1374): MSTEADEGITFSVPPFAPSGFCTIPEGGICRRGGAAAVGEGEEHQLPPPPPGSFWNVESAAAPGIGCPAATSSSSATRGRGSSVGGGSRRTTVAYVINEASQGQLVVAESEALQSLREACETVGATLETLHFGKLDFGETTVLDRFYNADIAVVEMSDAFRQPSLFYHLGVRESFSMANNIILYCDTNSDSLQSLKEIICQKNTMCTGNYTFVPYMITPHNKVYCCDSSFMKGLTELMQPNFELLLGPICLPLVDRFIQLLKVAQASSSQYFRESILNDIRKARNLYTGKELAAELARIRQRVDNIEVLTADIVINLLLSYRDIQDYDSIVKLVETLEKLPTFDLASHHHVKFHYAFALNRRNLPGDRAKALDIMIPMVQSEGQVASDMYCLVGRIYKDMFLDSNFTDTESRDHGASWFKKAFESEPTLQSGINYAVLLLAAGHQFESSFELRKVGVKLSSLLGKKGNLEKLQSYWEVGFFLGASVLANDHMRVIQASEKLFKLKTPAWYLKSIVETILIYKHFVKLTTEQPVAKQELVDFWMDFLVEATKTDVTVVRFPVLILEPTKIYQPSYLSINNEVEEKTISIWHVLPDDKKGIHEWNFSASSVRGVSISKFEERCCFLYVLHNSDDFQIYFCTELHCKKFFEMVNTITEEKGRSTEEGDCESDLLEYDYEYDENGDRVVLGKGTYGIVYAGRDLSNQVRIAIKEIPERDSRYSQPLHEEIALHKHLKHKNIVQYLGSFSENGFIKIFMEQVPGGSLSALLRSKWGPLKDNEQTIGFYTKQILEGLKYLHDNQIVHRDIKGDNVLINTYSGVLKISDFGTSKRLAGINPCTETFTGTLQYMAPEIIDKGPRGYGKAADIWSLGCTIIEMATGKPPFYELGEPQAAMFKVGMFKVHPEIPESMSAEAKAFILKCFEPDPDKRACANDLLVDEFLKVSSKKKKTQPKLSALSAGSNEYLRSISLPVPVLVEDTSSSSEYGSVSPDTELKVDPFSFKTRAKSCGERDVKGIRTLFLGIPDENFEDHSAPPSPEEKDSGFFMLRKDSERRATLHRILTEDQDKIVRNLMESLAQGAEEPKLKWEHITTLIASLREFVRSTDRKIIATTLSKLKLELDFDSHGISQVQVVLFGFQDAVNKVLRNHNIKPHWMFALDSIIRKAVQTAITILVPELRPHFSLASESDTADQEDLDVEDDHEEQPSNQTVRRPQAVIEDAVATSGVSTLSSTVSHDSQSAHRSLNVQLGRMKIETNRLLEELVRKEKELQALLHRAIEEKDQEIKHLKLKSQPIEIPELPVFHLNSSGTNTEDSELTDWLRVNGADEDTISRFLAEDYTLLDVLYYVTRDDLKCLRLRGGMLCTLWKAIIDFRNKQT

CDK7/cyclinH/MAT1(h) = biological target: T4, CDK7/cyclinH/MAT1(h) (Homo sapiens, UniProt P50613); experiment: Kinase panel
T4 construct: purchased Millipore KinaseProfiler

ErbB4(h) = biological target: T5, ErbB4(h) (Homo sapiens, UniProt Q15303); experiment: Kinase panel
T5 construct: purchased Millipore KinaseProfiler

LKB1(h) = biological target: T6, LKB1(h) (Homo sapiens, UniProt Q15831); experiment: Kinase panel
T6 construct: purchased Millipore KinaseProfiler
T6 sequence (Q15831 1-433): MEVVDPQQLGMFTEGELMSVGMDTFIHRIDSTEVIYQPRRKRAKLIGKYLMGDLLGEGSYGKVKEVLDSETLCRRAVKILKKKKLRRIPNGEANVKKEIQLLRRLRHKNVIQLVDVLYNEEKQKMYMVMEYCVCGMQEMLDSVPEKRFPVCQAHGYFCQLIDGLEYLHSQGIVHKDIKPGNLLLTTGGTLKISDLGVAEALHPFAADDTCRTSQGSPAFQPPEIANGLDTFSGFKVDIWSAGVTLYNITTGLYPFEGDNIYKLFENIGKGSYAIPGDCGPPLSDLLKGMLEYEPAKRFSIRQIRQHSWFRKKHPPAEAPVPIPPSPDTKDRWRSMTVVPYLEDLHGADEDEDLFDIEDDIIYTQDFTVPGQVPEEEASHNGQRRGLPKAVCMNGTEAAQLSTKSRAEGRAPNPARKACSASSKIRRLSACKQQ
T6 sequence (Q7RTN6 1-431 partner): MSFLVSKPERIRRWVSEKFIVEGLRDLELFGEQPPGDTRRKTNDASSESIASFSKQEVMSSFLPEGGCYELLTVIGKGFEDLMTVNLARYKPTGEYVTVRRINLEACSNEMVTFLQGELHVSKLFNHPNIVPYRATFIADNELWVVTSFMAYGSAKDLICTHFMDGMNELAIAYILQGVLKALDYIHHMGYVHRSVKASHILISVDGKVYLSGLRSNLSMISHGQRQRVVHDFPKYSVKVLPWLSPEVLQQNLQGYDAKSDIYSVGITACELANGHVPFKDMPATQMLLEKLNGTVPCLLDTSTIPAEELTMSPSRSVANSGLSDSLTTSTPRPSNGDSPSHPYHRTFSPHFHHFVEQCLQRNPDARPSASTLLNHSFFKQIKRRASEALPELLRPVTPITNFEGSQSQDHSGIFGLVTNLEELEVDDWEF
T6 sequence (Q9Y376 1-341 partner): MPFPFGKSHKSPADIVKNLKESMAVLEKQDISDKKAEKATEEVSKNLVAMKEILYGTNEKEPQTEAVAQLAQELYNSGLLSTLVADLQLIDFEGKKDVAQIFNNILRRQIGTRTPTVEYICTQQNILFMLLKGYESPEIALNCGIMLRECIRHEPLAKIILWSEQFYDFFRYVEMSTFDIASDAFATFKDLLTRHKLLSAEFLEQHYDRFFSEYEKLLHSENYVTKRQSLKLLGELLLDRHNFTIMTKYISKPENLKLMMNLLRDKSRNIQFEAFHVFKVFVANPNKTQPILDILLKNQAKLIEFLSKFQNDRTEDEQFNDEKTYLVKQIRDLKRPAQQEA

PKCη(h) = biological target: T7, PKCη(h) (Homo sapiens, UniProt P24723); experiment: Kinase panel
T7 construct: purchased Millipore KinaseProfiler

PKA = PKA (Homo sapiens, UniProt P17612); experiment: Kinase IC50 assay

T7 sequence (P24723 whole entry): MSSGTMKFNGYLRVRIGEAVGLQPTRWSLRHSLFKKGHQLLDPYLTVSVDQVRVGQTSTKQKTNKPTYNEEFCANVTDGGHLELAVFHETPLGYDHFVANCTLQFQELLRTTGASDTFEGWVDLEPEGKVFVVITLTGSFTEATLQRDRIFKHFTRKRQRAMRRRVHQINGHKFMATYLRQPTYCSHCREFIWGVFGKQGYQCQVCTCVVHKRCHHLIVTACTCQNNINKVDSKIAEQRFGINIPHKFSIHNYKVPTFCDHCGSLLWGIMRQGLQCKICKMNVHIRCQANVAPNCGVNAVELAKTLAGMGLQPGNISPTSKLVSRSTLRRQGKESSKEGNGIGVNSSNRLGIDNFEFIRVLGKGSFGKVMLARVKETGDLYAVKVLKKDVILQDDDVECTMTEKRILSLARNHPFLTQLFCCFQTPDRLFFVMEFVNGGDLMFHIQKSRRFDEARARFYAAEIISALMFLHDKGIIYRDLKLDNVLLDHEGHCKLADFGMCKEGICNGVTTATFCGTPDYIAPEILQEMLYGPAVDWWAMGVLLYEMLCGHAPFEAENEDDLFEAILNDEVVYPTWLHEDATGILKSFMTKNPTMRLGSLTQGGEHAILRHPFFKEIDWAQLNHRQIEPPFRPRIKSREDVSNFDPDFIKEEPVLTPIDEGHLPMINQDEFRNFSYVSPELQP
T4 sequence (P50613 whole entry): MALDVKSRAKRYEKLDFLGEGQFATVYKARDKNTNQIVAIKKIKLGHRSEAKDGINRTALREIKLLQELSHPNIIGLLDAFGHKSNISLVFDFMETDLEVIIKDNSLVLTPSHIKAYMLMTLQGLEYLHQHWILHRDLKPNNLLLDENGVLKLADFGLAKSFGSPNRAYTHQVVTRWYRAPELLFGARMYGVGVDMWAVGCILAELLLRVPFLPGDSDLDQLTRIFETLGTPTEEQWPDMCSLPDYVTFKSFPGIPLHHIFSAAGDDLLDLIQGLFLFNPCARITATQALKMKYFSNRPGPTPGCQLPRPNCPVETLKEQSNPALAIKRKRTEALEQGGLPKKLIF
T4 sequence (P51946 whole entry partner): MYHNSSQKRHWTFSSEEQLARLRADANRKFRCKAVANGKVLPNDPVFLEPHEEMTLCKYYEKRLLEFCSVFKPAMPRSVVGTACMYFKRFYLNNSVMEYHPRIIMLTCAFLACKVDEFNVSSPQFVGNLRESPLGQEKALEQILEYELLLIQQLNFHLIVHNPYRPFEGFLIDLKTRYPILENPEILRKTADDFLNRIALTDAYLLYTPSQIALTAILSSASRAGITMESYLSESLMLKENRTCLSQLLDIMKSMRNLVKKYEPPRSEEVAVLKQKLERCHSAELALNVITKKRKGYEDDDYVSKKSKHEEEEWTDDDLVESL
T4 sequence (P51948 whole entry partner): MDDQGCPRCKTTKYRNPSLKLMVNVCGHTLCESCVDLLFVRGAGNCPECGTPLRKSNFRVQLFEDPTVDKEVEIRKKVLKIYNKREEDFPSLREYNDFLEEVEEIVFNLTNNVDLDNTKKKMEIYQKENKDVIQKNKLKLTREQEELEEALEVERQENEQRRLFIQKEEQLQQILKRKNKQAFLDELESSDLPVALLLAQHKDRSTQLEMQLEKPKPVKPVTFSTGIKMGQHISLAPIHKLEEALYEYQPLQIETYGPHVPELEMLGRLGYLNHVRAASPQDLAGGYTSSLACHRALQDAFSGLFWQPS
T5 sequence (Q15303 26-1308): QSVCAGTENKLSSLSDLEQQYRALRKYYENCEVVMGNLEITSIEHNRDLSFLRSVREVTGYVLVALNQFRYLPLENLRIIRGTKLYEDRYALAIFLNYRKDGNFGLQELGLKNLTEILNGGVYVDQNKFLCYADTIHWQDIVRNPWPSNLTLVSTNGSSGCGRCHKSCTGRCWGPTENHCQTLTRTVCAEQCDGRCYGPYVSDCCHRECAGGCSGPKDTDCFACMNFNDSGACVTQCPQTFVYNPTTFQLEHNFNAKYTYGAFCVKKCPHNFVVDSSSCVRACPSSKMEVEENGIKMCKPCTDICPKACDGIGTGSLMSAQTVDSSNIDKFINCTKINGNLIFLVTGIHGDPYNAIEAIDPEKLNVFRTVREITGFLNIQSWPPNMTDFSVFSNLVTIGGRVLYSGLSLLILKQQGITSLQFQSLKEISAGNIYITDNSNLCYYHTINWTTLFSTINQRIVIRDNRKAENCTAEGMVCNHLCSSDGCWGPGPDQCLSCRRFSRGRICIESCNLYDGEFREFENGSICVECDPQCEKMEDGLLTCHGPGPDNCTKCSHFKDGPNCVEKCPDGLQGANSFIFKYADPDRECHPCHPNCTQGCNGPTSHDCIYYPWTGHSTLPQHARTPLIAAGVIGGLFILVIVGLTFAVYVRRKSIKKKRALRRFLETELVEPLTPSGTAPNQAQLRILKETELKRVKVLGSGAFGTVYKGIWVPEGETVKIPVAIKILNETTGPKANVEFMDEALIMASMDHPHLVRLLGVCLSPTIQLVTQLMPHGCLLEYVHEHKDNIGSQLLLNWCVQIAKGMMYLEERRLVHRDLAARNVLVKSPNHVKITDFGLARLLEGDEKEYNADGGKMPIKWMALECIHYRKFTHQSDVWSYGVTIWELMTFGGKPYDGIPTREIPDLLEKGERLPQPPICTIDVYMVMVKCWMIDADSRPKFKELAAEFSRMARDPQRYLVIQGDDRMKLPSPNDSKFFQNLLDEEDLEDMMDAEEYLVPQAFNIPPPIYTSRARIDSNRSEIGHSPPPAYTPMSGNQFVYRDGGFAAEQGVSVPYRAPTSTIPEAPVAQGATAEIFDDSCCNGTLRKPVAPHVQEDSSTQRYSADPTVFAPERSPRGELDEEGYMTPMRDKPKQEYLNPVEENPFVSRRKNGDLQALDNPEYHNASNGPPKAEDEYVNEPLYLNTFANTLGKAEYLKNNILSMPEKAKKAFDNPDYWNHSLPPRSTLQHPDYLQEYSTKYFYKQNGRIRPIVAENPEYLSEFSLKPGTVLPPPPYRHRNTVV
T2 sequence (Q4JIM5 2-1182 limits assumed): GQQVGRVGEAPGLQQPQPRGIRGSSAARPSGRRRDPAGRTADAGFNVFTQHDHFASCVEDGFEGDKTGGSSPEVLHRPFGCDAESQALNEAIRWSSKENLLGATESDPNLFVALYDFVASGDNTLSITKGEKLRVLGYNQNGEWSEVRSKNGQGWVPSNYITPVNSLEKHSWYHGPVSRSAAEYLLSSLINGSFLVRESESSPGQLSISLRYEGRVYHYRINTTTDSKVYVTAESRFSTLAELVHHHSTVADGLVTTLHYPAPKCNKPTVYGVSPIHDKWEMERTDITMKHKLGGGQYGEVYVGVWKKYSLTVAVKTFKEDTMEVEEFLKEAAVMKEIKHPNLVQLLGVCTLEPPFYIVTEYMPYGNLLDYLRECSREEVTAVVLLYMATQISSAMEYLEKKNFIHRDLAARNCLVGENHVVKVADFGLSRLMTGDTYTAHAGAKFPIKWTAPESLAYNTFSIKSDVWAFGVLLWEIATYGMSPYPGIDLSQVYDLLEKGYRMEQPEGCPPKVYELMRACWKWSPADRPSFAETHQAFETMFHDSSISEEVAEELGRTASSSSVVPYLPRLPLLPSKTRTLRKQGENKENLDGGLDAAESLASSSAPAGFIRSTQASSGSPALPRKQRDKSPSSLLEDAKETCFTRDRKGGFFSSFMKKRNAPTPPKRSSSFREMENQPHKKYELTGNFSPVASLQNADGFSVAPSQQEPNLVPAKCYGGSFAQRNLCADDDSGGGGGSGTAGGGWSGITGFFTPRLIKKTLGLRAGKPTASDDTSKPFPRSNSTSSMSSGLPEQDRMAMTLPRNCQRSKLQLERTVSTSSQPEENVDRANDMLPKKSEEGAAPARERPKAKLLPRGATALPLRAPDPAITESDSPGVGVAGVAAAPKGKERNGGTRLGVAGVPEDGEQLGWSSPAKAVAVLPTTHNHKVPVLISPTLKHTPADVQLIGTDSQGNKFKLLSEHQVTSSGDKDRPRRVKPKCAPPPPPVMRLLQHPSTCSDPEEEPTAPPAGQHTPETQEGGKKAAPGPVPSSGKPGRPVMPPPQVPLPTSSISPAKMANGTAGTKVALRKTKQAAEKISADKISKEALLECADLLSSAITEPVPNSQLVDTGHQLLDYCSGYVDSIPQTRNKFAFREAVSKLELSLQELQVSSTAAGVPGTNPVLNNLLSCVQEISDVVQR

## Cn1ncc(Cl)c1-c1cc(C(=O)N[C@H](CN)Cc2ccc(F)c(F)c2)oc1Cl [GSK2141795]
Abl (M351T)(h); 0.5 µM, read-out: % Inhibition
  inhibition at 0.5 µM: -7%
Abl (M351T)(h); 10 µM, read-out: % Inhibition
  inhibition at 10 µM: -3%
Arg(m); 0.5 µM, read-out: % Inhibition
  inhibition at 0.5 µM: -1%
Arg(m); 10 µM, read-out: % Inhibition
  inhibition at 10 µM: 7%
ASK1(h); 0.5 µM, read-out: % Inhibition
  inhibition at 0.5 µM: -21%
ASK1(h); 10 µM, read-out: % Inhibition
  inhibition at 10 µM: -14%
CDK7/cyclinH/MAT1(h); 0.5 µM, read-out: % Inhibition
  inhibition at 0.5 µM: 64%
CDK7/cyclinH/MAT1(h); 10 µM, read-out: % Inhibition
  inhibition at 10 µM: 101%
ErbB4(h); 0.5 µM, read-out: % Inhibition
  inhibition at 0.5 µM: -11%
ErbB4(h); 10 µM, read-out: % Inhibition
  inhibition at 10 µM: -5%
LKB1(h); 0.5 µM, read-out: % Inhibition
  inhibition at 0.5 µM: -18%
LKB1(h); 10 µM, read-out: % Inhibition
  inhibition at 10 µM: 18%
PKCη(h); 0.5 µM, read-out: % Inhibition
  inhibition at 0.5 µM: 86%
PKCη(h); 10 µM, read-out: % Inhibition
  inhibition at 10 µM: 99%
PKA
  IC50: 2 nM

## Cn1ncc(Cl)c1-c1cc(C(=O)N[C@H](CN)Cc2cccc(F)c2)sc1Cl [GSK2110183]
Abl (M351T)(h)
  inhibition at 0.5 µM: 0%
  inhibition at 10 µM: 24%
Arg(m)
  inhibition at 0.5 µM: -1%
  inhibition at 10 µM: 1%
ASK1(h)
  inhibition at 0.5 µM: -2%
  inhibition at 10 µM: 3%
CDK7/cyclinH/MAT1(h)
  inhibition at 0.5 µM: 62%
  inhibition at 10 µM: 96%
ErbB4(h)
  inhibition at 0.5 µM: -4%
  inhibition at 10 µM: 4%
LKB1(h)
  inhibition at 0.5 µM: -2%
  inhibition at 10 µM: 40%
PKCη(h)
  inhibition at 0.5 µM: 78%
  inhibition at 10 µM: 97%
PKA
  IC50: 1.3 nM
